# Test results: patent US10479780B2, “Aminopyrazole derivatives” (Chugai Seiyaku Kabushiki Kaisha, priority 2015, dated 2019)
# Experiments:
# Format in all cases: biochemical
# human Yes1 enzyme = target: T1, human Yes1 enzyme (Homo sapiens, UniProt P07947); assay: Yes1 enzyme inhibitory activity (time-resolved fluorometry, biotinylated peptide phosphorylation); conditions: biotinylated peptide phosphorylation, read-out: YES_IC50
# T1 construct: made in house
# Outline: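 Inhibition was expressed against a compound-free control to give IC50, using TR-FRET read-out (Eu-cryptate anti-pTyr antibody, streptavidin-XL665).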
# human Src enzyme = target: T2, human Src enzyme (Homo sapiens, UniProt P12931); assay: Src enzyme inhibitory activity (time-resolved fluorometry, biotinylated peptide phosphorylation); conditions: biotinylated peptide phosphorylation, read-out: SRC_IC50
# T2 construct: purchased Carna Biosciences, Inc. 08-173
# T2 sequence (P12931 whole entry): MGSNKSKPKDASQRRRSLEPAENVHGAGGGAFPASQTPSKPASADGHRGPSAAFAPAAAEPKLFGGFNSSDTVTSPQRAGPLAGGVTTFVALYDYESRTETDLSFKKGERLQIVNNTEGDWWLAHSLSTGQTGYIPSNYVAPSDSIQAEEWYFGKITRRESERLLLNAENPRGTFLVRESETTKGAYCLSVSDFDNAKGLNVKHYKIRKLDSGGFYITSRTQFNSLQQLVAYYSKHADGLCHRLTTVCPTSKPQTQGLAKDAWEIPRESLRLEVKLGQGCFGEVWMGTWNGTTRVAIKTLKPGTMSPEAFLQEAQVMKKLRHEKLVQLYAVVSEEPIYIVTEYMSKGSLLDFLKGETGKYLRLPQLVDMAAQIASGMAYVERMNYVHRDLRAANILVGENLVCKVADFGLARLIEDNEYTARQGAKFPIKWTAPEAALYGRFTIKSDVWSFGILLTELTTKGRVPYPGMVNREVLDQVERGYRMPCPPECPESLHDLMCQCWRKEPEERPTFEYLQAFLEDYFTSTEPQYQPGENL
# Outline: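 Compounds were tested for blocking tyrosine phosphorylation of a biotinylated peptide substrate by recombinant human Src. Phosphorylated product was quantified by time-resolved fluorometry using europium cryptate and XL665 conjugates, and IC50 was calculated against the compound-free control.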
# human Lck enzyme = target: T3, human Lck enzyme (Homo sapiens, UniProt P06239); assay: Lck enzyme inhibitory activity (time-resolved fluorometry, biotinylated peptide phosphorylation); conditions: biotinylated peptide phosphorylation, read-out: LCK_IC50
# T3 construct: purchased Carna Biosciences, Inc. 08-170
# T3 sequence (P06239 whole entry): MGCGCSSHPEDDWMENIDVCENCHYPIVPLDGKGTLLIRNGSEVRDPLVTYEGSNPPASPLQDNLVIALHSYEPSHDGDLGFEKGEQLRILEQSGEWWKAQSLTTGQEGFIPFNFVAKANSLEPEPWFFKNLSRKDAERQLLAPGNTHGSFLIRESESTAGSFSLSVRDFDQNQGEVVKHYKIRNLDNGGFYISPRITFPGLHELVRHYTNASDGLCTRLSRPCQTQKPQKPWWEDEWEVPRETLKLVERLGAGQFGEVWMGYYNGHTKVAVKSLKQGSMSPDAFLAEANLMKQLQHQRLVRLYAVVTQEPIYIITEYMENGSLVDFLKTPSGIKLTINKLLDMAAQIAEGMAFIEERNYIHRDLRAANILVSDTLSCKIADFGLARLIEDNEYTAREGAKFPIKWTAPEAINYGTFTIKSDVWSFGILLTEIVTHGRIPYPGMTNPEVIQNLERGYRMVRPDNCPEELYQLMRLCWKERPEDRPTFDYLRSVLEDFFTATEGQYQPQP
# Outline: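 Readout pairs a europium cryptate-labelled anti-phosphotyrosine antibody with XL665-streptavidin, measured by time-resolved fluorescence. IC50 derived from percent inhibition against untreated controls.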
# T1 sequence (P07947 whole entry): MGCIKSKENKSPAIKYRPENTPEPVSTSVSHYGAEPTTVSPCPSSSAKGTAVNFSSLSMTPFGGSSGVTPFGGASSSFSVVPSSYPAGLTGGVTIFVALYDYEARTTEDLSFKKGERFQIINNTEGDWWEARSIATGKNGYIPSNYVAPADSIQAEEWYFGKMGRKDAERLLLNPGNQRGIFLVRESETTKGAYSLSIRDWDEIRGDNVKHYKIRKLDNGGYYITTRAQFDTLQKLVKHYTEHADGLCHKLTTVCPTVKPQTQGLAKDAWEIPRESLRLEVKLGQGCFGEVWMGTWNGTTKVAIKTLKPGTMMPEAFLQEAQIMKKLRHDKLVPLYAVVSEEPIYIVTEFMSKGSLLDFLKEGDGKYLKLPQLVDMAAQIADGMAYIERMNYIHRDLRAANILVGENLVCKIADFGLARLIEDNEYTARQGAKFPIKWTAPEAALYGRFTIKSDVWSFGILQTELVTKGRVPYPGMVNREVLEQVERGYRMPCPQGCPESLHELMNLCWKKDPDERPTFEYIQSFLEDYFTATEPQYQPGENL
IC50 (human Yes1 enzyme) [nM],IC50 (human Src enzyme) [nM],IC50 (human Lck enzyme) [nM],SMILES
1.2,21,6.7,"Cc1cc(Oc2c(F)cccc2F)ncc1-n1ncc(C(=O)c2cc3cc(OCC(F)F)c(NS(C)(=O)=O)cc3[nH]2)c1N [Example 4-24-031, N-[2-[5-amino-1-[6-(2,6-difluorophenoxy)-4-methylpyridin-3-yl]pyrazole-4-carbonyl]-5-(2,2-difluoroethoxy)-1H-indol-6-yl]methanesulfonamide]"
0.64,57,14,"Cc1cc(Oc2c(F)cccc2F)ncc1-n1ncc(C(=O)c2cc3cc(OCC(F)F)c(NS(=O)(=O)CCCF)cc3[nH]2)c1N [Example 4-24-032, N-[2-[5-amino-1-[6-(2,6-difluorophenoxy)-4-methylpyridin-3-yl]pyrazole-4-carbonyl]-5-(2,2-difluoroethoxy)-1H-indol-6-yl]-3-fluoropropane-1-sulfonamide]"
4.9,88,16,"Cc1cc(Oc2c(F)cccc2F)ncc1-n1ncc(C(=O)c2cc3cc(OCC(F)F)c(NS(=O)(=O)CCC(F)F)cc3[nH]2)c1N [Example 4-24-033, N-[2-[5-amino-1-[6-(2,6-difluorophenoxy)-4-methylpyridin-3-yl]pyrazole-4-carbonyl]-5-(2,2-difluoroethoxy)-1H-indol-6-yl]-3,3-difluoropropane-1-sulfonamide]"
0.39,8.1,4.7,"Cc1cc(Oc2ccccc2F)ccc1-n1ncc(C(=O)c2cc3cc(OCCN4CCOCC4)c(NS(C)(=O)=O)cc3[nH]2)c1N [Example 4-24-034, N-[2-[5-amino-1-[4-(2-fluorophenoxy)-2-methylphenyl]pyrazole-4-carbonyl]-5-(2-morpholin-4-ylethoxy)-1H-indol-6-yl]methanesulfonamide]"
1.2,47,5,"COc1cc2cc(C(=O)c3cnn(-c4cnc(Oc5c(F)cccc5F)cc4C)c3N)[nH]c2cc1NS(=O)(=O)C1CC1 [Example 4-24-035, N-[2-[5-amino-1-[6-(2,6-difluorophenoxy)-4-methylpyridin-3-yl]pyrazole-4-carbonyl]-5-methoxy-1H-indol-6-yl]cyclopropanesulfonamide]"
4.2,120,20,"Cc1cc(Oc2ccccc2F)ccc1-n1ncc(C(=O)c2cc3cc(OC4CCOCC4)c(NS(C)(=O)=O)cc3[nH]2)c1N [Example 4-24-036, N-{2-{5-amino-1-[4-(2-fluorophenoxy)-2-methylphenyl]pyrazole-4-carbonyl}-5-(oxan-4-yloxy)-1H-indol-6-yl}methanesulfonamide]"
0.55,6.9,2.9,"Cc1cc(Oc2ccccc2F)ccc1-n1ncc(C(=O)c2cc3cc(OCCN4C[C@@H]5C[C@H]4CN5S(C)(=O)=O)c(NS(C)(=O)=O)cc3[nH]2)c1N [Example 4-24-038, N-[2-[5-amino-1-[4-(2-fluorophenoxy)-2-methylphenyl]pyrazole-4-carbonyl]-5-[2-[(1S,4S)-2-methylsulfonyl-2,5-diazabicyclo[2.2.1]heptan-5-yl]ethoxy]-1H-indol-6-yl]methanesulfonamide]"
1.6,29,9.6,"Cc1cc(Oc2ccccc2F)ncc1-n1ncc(C(=O)c2cc3cc(OCC(F)F)c(N4CCCS4(=O)=O)cc3[nH]2)c1N [Example 4-25-001, {5-amino-1-[6-(2-fluorophenoxy)-4-methylpyridin-3-yl]pyrazol-4-yl}-[5-(2,2-difluoroethoxy)-6-(1,1-dioxo-1,2-thiazolidin-2-yl)-1H-indol-2-yl]methanone]"
3.1,37,15,"Cc1cc(Oc2ccccc2F)ccc1-n1ncc(C(=O)c2cc3cc(OC(F)F)c(N4CCCS4(=O)=O)cc3[nH]2)c1N [Example 4-25-002, [5-amino-1-[4-(2-fluorophenoxy)-2-methylphenyl]pyrazol-4-yl]-[5-(difluoromethoxy)-6-(1,1-dioxo-1,2-thiazolidin-2-yl)-1H-indol-2-yl]methanone]"
3.9,130,19,"Cc1cc(Oc2ccccc2F)cc(F)c1-n1ncc(C(=O)c2cc3cc(OC(F)F)c(N4CCCS4(=O)=O)cc3[nH]2)c1N [Example 4-25-003, [5-amino-1-[2-fluoro-4-(2-fluorophenoxy)-6-methylphenyl]pyrazol-4-yl]-[5-(difluoromethoxy)-6-(1,1-dioxo-1,2-thiazolidin-2-yl)-1H-indol-2-yl]methanone]"
1,48,8.7,"Cc1cc(Oc2ccccc2F)ncc1-n1ncc(C(=O)c2cc3cc(OC(F)F)c(N4CCCS4(=O)=O)cc3[nH]2)c1N [Example 4-25-004, [5-amino-1-[6-(2-fluorophenoxy)-4-methylpyridin-3-yl]pyrazol-4-yl]-[5-(difluoromethoxy)-6-(1,1-dioxo-1,2-thiazolidin-2-yl)-1H-indol-2-yl]methanone]"
3.9,53,11,"Cc1cc(Oc2c(F)cccc2F)ncc1-n1ncc(C(=O)c2cc3cc(OC(F)F)c(N4CCCS4(=O)=O)cc3[nH]2)c1N [Example 4-25-005, [5-amino-1-[6-(2,6-difluorophenoxy)-4-methylpyridin-3-yl]pyrazol-4-yl]-[5-(difluoromethoxy)-6-(1,1-dioxo-1,2-thiazolidin-2-yl)-1H-indol-2-yl]methanone]"
1.1,18,9,"Cc1cc(Oc2ccccc2F)ccc1-n1ncc(C(=O)c2cc3cc(N4CCOCC4)c(N4CCCS4(=O)=O)cc3[nH]2)c1N [Example 4-25-006, [5-amino-1-[4-(2-fluorophenoxy)-2-methylphenyl]pyrazol-4-yl]-[6-(1,1-dioxo-1,2-thiazolidin-2-yl)-5-morpholin-4-yl-1H-indol-2-yl]methanone]"
1.1,23,5.2,"Cc1cc(Oc2ccccc2F)ncc1-n1ncc(C(=O)c2cc3cc(N4CCOCC4)c(N4CCCS4(=O)=O)cc3[nH]2)c1N [Example 4-25-007, [5-amino-1-[6-(2-fluorophenoxy)-4-methylpyridin-3-yl]pyrazol-4-yl]-[6-(1,1-dioxo-1,2-thiazolidin-2-yl)-5-morpholin-4-yl-1H-indol-2-yl]methanone]"
1.5,22,8.2,"Cc1cc(Oc2c(F)cccc2F)ncc1-n1ncc(C(=O)c2cc3cc(N4CCOCC4)c(N4CCCS4(=O)=O)cc3[nH]2)c1N [Example 4-25-008, [5-amino-1-[6-(2,6-difluorophenoxy)-4-methylpyridin-3-yl]pyrazol-4-yl]-[6-(1,1-dioxo-1,2-thiazolidin-2-yl)-5-morpholin-4-yl-1H-indol-2-yl]methanone]"
3.5,32,18,"Cc1cc(Oc2ccccc2F)ccc1-n1ncc(C(=O)c2cc3cc(OCC(F)F)c(N4CCCS4(=O)=O)cc3[nH]2)c1N [Example 4-25-009, [5-amino-1-[4-(2-fluorophenoxy)-2-methylphenyl]pyrazol-4-yl]-[5-(2,2-difluoroethoxy)-6-(1,1-dioxo-1,2-thiazolidin-2-yl)-1H-indol-2-yl]methanone]"
1.7,16,7.4,"Cc1cc(Oc2ccccc2F)cc(F)c1-n1ncc(C(=O)c2cc3cc(OCC(F)F)c(N4CCCS4(=O)=O)cc3[nH]2)c1N [Example 4-25-010, [5-amino-1-[2-fluoro-4-(2-fluorophenoxy)-6-methylphenyl]pyrazol-4-yl]-[5-(2,2-difluoroethoxy)-6-(1,1-dioxo-1,2-thiazolidin-2-yl)-1H-indol-2-yl]methanone]"
1.4,11,4.1,"Cc1cc(Oc2c(F)cccc2F)ncc1-n1ncc(C(=O)c2cc3cc(OCC(F)F)c(N4CCCS4(=O)=O)cc3[nH]2)c1N [Example 4-25-011, [5-amino-1-[6-(2,6-difluorophenoxy)-4-methylpyridin-3-yl]pyrazol-4-yl]-[5-(2,2-difluoroethoxy)-6-(1,1-dioxo-1,2-thiazolidin-2-yl)-1H-indol-2-yl]methanone]"
0.35,3,2.1,"Cc1cc(Oc2ccccc2F)ccc1-n1ncc(C(=O)c2cc3cc(OCCN4CCOCC4)c(N4CCCS4(=O)=O)cc3[nH]2)c1N [Example 4-25-012, [5-amino-1-[4-(2-fluorophenoxy)-2-methylphenyl]pyrazol-4-yl]-[6-(1,1-dioxo-1,2-thiazolidin-2-yl)-5-(2-morpholin-4-ylethoxy)-1H-indol-2-yl]methanone]"
1,16,4,"Cc1cc(Oc2ccccc2F)ncc1-n1ncc(C(=O)c2cc3cc(OCC(F)F)c(N4CCCC4=O)cc3[nH]2)c1N [Example 4-25-013, 1-{2-{5-amino-1-[6-(2-fluorophenoxy)-4-methylpyridin-3-yl]pyrazole-4-carbonyl}-5-(2,2-difluoroethoxy)-1H-indol-6-yl}pyrrolidin-2-one]"

SMILES,IC50 (human Yes1 enzyme) [nM],IC50 (human Src enzyme) [nM],IC50 (human Lck enzyme) [nM]
Cc1cc(Oc2ccccc2F)ccc1-n1ncc(C(=O)c2cc3cc(OCCN4CC5CC(C4)N5S(C)(=O)=O)c(NS(C)(=O)=O)cc3[nH]2)c1N [Example 4-24-037],0.67,24,3.8
"Cc1cc(Oc2ccccc2F)ccc1-n1ncc(C(=O)c2cc3cc(OCCN4[C@@H]5CC[C@H]4COC5)c(NS(C)(=O)=O)cc3[nH]2)c1N [Example 4-24-039, N-[2-[5-amino-1-[4-(2-fluorophenoxy)-2-methylphenyl]pyrazole-4-carbonyl]-5-[2-[(1S,5R)-3-oxa-8-azabicyclo[3.2.1]octan-8-yl]ethoxy]-1H-indol-6-yl]methanesulfonamide]",0.46,8.3,2.8
